# Where “and” joins values, the source holds several entries; their conditions need not be identical. Identical values can stand only once. Like-named read-outs stand apart in the source and are kept apart here.
# How the values were obtained:
# [1] = test system: transgenic soybean expressing mutated PPO; format: in vivo, Glycine max; conditions: T1 soybean, field; for injury (1-5 point scale): key: 1: no obvious damage (no phytotoxicity); 2: minor amount of leaf damage, plant will survive; 3: moderate amount of leaf damage, plant will survive; 4: severe amount of leaf damage, plant will survive; 5: no surviving plants - all plants dead/dying
# [2] = test system: transgenic soybean expressing mutated PPO; assay: Soybean segregating T1 individuals, greenhouse spray test (injury 0-9); format: in vivo, Glycine max; conditions: Saflufenacil 150 g ai/ha, 1 week after treatment
# [3] = test system: transgenic Arabidopsis thaliana plants expressing wildtype or mutated PPO; assay: Germination / growth inhibition assay of transgenic Arabidopsis T2 seeds in 48-well plates; conditions: growth inhibition seven to ten days after seeding
structure (smiles),measurement,setting,value
"CC(C)N(C)S(=O)(=O)NC(=O)c1cc(-n2c(=O)cc(C(F)(F)F)n(C)c2=O)c(F)cc1Cl [Saflufenacil, saflufenacil]",Injury rating (1-5 point scale),"[1]; SDS-10761 LTM383-1 AmtuPPX2L_F420M, Saflufenacil (150 gai/ha), 3 days after treatment",3
same,Injury rating (1-5 point scale),"[1]; SDS-10776 LTM386-1 AmtuPPX2L_R128A_F420I, Saflufenacil (75 gai/ha), 3 days after treatment",2
same,Injury rating (1-5 point scale),"[1]; SDS-10776 LTM386-1 AmtuPPX2L_R128A_F420I, Saflufenacil (150 gai/ha), 3 days after treatment",2.5
same,Injury rating (1-5 point scale),"[1]; SDS-10787 LTM384-1 AmtuPPX2L_R128A_F420L, Saflufenacil (75 gai/ha), 3 days after treatment",3
same,Injury rating (1-5 point scale),"[1]; SDS-10787 LTM384-1 AmtuPPX2L_R128A_F420L, Saflufenacil (150 gai/ha), 3 days after treatment",2.5
same,injury (1-5 point scale),"[1]; SDS-10791 AmtuPPX2L R128A_F420I, Saflufenacil 75 g ai/ha, 3 days after treatment",2
same,injury (1-5 point scale),"[1]; SDS-10791 AmtuPPX2L R128A_F420I, Saflufenacil 150 g ai/ha, 3 days after treatment",2
same,Injury rating (1-5 point scale),"[1]; SDS-10791 LTM386-1 AmtuPPX2L_R128A_F420I, Saflufenacil (75 gai/ha), 3 days after treatment",2
same,Injury rating (1-5 point scale),"[1]; SDS-10791 LTM386-1 AmtuPPX2L_R128A_F420I, Saflufenacil (150 gai/ha), 3 days after treatment",2
same,Injury rating (1-5 point scale),"[1]; SDS-10985 LTM385-1 AmtuPPX2L_R128A_F420M, Saflufenacil (75 gai/ha), 3 days after treatment",2
same,Injury rating (1-5 point scale),"[1]; SDS-10985 LTM385-1 AmtuPPX2L_R128A_F420M, Saflufenacil (150 gai/ha), 3 days after treatment",2
same,Injury rating (1-5 point scale),"[1]; SDS-10990 LTM385-1 AmtuPPX2L_R128A_F420M, Saflufenacil (75 gai/ha), 3 days after treatment",2.5
same,Injury rating (1-5 point scale),"[1]; SDS-10990 LTM385-1 AmtuPPX2L_R128A_F420M, Saflufenacil (150 gai/ha), 3 days after treatment",2.5
same,Injury rating (1-5 point scale),"[1]; SDS-10998 LTM387-1 AmtuPPX2L_R128A_F420V, Saflufenacil (75 gai/ha), 3 days after treatment",2
same,Injury rating (1-5 point scale),"[1]; SDS-10998 LTM387-1 AmtuPPX2L_R128A_F420V, Saflufenacil (150 gai/ha), 3 days after treatment",2
same,Injury rating (1-5 point scale),"[1]; SDS-11011 LTM385-1 AmtuPPX2L_R128A_F420M, Saflufenacil (75 gai/ha), 3 days after treatment",2
same,Injury rating (1-5 point scale),"[1]; SDS-11011 LTM385-1 AmtuPPX2L_R128A_F420M, Saflufenacil (150 gai/ha), 3 days after treatment",2
same,injury (1-5 point scale),"[1]; SDS-11014 AmtuPPX2L R128A_F420I, Saflufenacil 75 g ai/ha, 3 days after treatment",2
same,injury (1-5 point scale),"[1]; SDS-11014 AmtuPPX2L R128A_F420I, Saflufenacil 150 g ai/ha, 3 days after treatment",2
same,Injury rating (1-5 point scale),"[1]; SDS-11014 LTM386-1 AmtuPPX2L_R128A_F420I, Saflufenacil (75 gai/ha), 3 days after treatment",2
same,Injury rating (1-5 point scale),"[1]; SDS-11014 LTM386-1 AmtuPPX2L_R128A_F420I, Saflufenacil (150 gai/ha), 3 days after treatment",2
same,injury (1-5 point scale),"[1]; SDS-11034 AmtuPPX2L L397D_F420V, Saflufenacil 75 g ai/ha, 3 days after treatment",2
same,injury (1-5 point scale),"[1]; SDS-11034 AmtuPPX2L L397D_F420V, Saflufenacil 150 g ai/ha, 3 days after treatment",2
same,Injury rating (1-5 point scale),"[1]; SDS-11034 LTM387-1 AmtuPPX2L_R128A_F420V, Saflufenacil (75 gai/ha), 3 days after treatment",3
same,Injury rating (1-5 point scale),"[1]; SDS-11034 LTM387-1 AmtuPPX2L_R128A_F420V, Saflufenacil (150 gai/ha), 3 days after treatment",2
same,injury (1-5 point scale),"[1]; SDS-11035 AmtuPPX2L R128A_F420V, Saflufenacil 75 g ai/ha, 3 days after treatment",2
same,injury (1-5 point scale),"[1]; SDS-11035 AmtuPPX2L R128A_F420V, Saflufenacil 150 g ai/ha, 3 days after treatment",2
same,Injury rating (1-5 point scale),"[1]; SDS-11035 LTM387-1 AmtuPPX2L_R128A_F420V, Saflufenacil (75 gai/ha), 3 days after treatment",2
same,Injury rating (1-5 point scale),"[1]; SDS-11035 LTM387-1 AmtuPPX2L_R128A_F420V, Saflufenacil (150 gai/ha), 3 days after treatment",2
same,Injury rating (1-5 point scale),"[1]; SDS-11036 LTM386-1 AmtuPPX2L_R128A_F420I, Saflufenacil (75 gai/ha), 3 days after treatment",2.5
same,Injury rating (1-5 point scale),"[1]; SDS-11036 LTM386-1 AmtuPPX2L_R128A_F420I, Saflufenacil (150 gai/ha), 3 days after treatment",2.5
same,injury (1-5 point scale),"[1]; SDS-11052 AmtuPPX2L R128A_F420M, Saflufenacil 75 g ai/ha, 3 days after treatment",2
same,injury (1-5 point scale),"[1]; SDS-11052 AmtuPPX2L R128A_F420M, Saflufenacil 150 g ai/ha, 3 days after treatment",2
same,Injury rating (1-5 point scale),"[1]; SDS-11052 LTM385-1 AmtuPPX2L_R128A_F420M, Saflufenacil (75 gai/ha), 3 days after treatment",3
same,Injury rating (1-5 point scale),"[1]; SDS-11052 LTM385-1 AmtuPPX2L_R128A_F420M, Saflufenacil (150 gai/ha), 3 days after treatment",3
same,Injury rating (1-5 point scale),"[1]; SDS-11105 LTM387-1 AmtuPPX2L_R128A_F420V, Saflufenacil (75 gai/ha), 3 days after treatment",2.5
same,Injury rating (1-5 point scale),"[1]; SDS-11105 LTM387-1 AmtuPPX2L_R128A_F420V, Saflufenacil (150 gai/ha), 3 days after treatment",2.5
same,Injury rating (1-5 point scale),"[1]; SDS-11110 LTM387-1 AmtuPPX2L_R128A_F420V, Saflufenacil (75 gai/ha), 3 days after treatment",2.5
same,Injury rating (1-5 point scale),"[1]; SDS-11110 LTM387-1 AmtuPPX2L_R128A_F420V, Saflufenacil (150 gai/ha), 3 days after treatment",2.5
same,Injury rating (1-5 point scale),"[1]; SDS-11111 LTM386-1 AmtuPPX2L_R128A_F420I, Saflufenacil (75 gai/ha), 3 days after treatment",2.5
same,Injury rating (1-5 point scale),"[1]; SDS-11111 LTM386-1 AmtuPPX2L_R128A_F420I, Saflufenacil (150 gai/ha), 3 days after treatment",2.5
same,Injury rating (1-5 point scale),"[1]; SDS-11118 LTM386-1 AmtuPPX2L_R128A_F420I, Saflufenacil (75 gai/ha), 3 days after treatment",2
same,Injury rating (1-5 point scale),"[1]; SDS-11118 LTM386-1 AmtuPPX2L_R128A_F420I, Saflufenacil (150 gai/ha), 3 days after treatment",2
same,Injury rating (1-5 point scale),"[1]; Wildtype Jake, Saflufenacil (75 gai/ha), 3 days after treatment (Table 11e)",5
same,Injury rating (1-5 point scale),"[1]; Wildtype Jake, Saflufenacil (75 gai/ha), 3 days after treatment (Table 11d)",5
same,Injury rating (1-5 point scale),"[1]; Wildtype Jake, Saflufenacil (150 gai/ha), 3 days after treatment (Table 11e)",5
same,Injury rating (1-5 point scale),"[1]; Wildtype Jake, Saflufenacil (150 gai/ha), 3 days after treatment (Table 11d)",5
same,injury (1-5 point scale),"[1]; wild type, Saflufenacil 75 g ai/ha, 3 days after treatment",5
same,injury (1-5 point scale),"[1]; wild type, Saflufenacil 150 g ai/ha, 3 days after treatment",5
same,Injury rating (1-5 point scale),"[1]; wild type, saflufenacil: treatment 1 150 g ai/ha, treatment 2 0, 7 DAT",5
same,Injury rating (1-5 point scale),"[1]; wild type, saflufenacil: treatment 1 300 g ai/ha, treatment 2 300 g ai/ha, 14 DAT",5
same,injury (0-9 point scale),[2]; SDS10791 AmtuPPX2L R128A_F420I,1 (2×) and 2 and 0 and 9 (4×)
same,injury (0-9 point scale),[2]; SDS-10642 AmtuPPX2L R128A_F420L,0 (6×) and 1 (2×)
same,injury (0-9 point scale),[2]; SDS-10648 AmtuPPX2L R128A_F420I,3 and 4 (3×) and 5 (3×) and 6
same,injury (0-9 point scale),[2]; SDS-10652 AmtuPPX2L L397D_F420V,3 (3×) and 5 (2×) and 4 (2×) and 6
same,injury (0-9 point scale),[2]; SDS-10787 AmtuPPX2L R128A_F420L,6 and 5 and 4 (4×) and 0 and 9
same,injury (0-9 point scale),[2]; SDS-10985 AmtuPPX2L R128A_F420M,0 (3×) and 1 (2×) and 3 and 2
same,injury (0-9 point scale),[2]; SDS-10990 AmtuPPX2L R128A_F420M,3 (4×) and 4 and 9 and 0 and 1
same,injury (0-9 point scale),[2]; SDS-11034 AmtuPPX2L R128A_F420V,0 (5×) and 5 and 1 and 2
same,injury (0-9 point scale),[2]; wild type,9
same,Relative tolerance rate as compared to a non-transgenic Arabidopsis plant (non-transgenic = 1.0),[3]; transgenic Arabidopsis AMATU_PPO2_F420I,80
same,Relative tolerance rate as compared to a non-transgenic Arabidopsis plant (non-transgenic = 1.0),[3]; transgenic Arabidopsis AMATU_PPO2_F420L,192
same,Relative tolerance rate as compared to a non-transgenic Arabidopsis plant (non-transgenic = 1.0),[3]; transgenic Arabidopsis AMATU_PPO2_F420M,168
same,Relative tolerance rate as compared to a non-transgenic Arabidopsis plant (non-transgenic = 1.0),[3]; transgenic Arabidopsis AMATU_PPO2_R128A_F420I,1200
same,Relative tolerance rate as compared to a non-transgenic Arabidopsis plant (non-transgenic = 1.0),[3]; transgenic Arabidopsis AMATU_PPO2_R128A_F420L,1200
same,Relative tolerance rate as compared to a non-transgenic Arabidopsis plant (non-transgenic = 1.0),[3]; transgenic Arabidopsis AMATU_PPO2_R128A_F420M,1160
same,Relative tolerance rate as compared to a non-transgenic Arabidopsis plant (non-transgenic = 1.0),[3]; transgenic Arabidopsis AMATU_PPO2_R128L,160
same,Relative tolerance rate as compared to a non-transgenic Arabidopsis plant (non-transgenic = 1.0),[3]; transgenic Arabidopsis AMATU_PPO2_dG210,100
same,Relative tolerance rate as compared to a non-transgenic Arabidopsis plant (non-transgenic = 1.0),[3]; transgenic Arabidopsis AMATU_PPO2_dG210_R128L,1200
same,Relative tolerance rate as compared to a non-transgenic Arabidopsis plant (non-transgenic = 1.0),[3]; transgenic Arabidopsis AMATU_PPO2_wt,10

# From patent publication US11866720B2, “Transgenic or non-transgenic plants with mutated protoporphyrinogen oxidase having increased tolerance to herbicides” (priority 2013, dated 2024)
